Laboratory results: patent US3957987A, “Compositions containing a carbonamidoquinoxaline-di-N-oxide and method of using same” (Bayer Aktiengesellschaft, priority 1971, dated 1976)
Converted amounts (≈) assume the structure as drawn.

Test system: Bordetella bronchiseptica
Assay: Minimum inhibitory concentration, Bordetella bronchiseptica
Type: cell-based
Conditions: not given

| SMILES | MIC [µg/mL] |
| --- | --- |
| CCCNC(=O)c1c(C=NNC(=O)OC)[n+]([O-])c2ccccc2[n+]1[O-] [Example 15] | 100 (≈ 288 µM) |
| COC(=O)NN=Cc1c(C(=O)NC2CCCCC2)[n+]([O-])c2ccccc2[n+]1[O-] [Example 16] | 100 (≈ 258 µM) |

Test system: Escherichia coli C 165
Assay: Minimum inhibitory concentration in vitro, Escherichia coli C 165
Type: cell-based
Conditions: C165
Description: (§1) As representative of the spectrum of antimicrobial activity for these compounds, the following representative minimum inhibitory concentrations shown on Tables A, B and C can be noted:
(§2) Minimum Inhibitory Concentrations In Vitro, in μg/ml of Medium

| SMILES | MIC [µg/mL] |
| --- | --- |
| CCCNC(=O)c1c(C=NNC(=O)OC)[n+]([O-])c2ccccc2[n+]1[O-] [Example 15] | 100 (≈ 288 µM) |

Test system: Escherichia coli A 261
Assay: Minimum inhibitory concentration in vitro, Escherichia coli A 261
Type: cell-based
Conditions: A261
Description: as §1, §2

| SMILES | MIC [µg/mL] |
| --- | --- |
| CCCNC(=O)c1c(C=NNC(=O)OC)[n+]([O-])c2ccccc2[n+]1[O-] [Example 15] | 100 (≈ 288 µM) |

Test system: Mycobacterium species
Assay: Minimum inhibitory concentration, Mycobacterium species
Type: cell-based
Conditions: not given
Description: As representative of the spectrum of antimicrobial activity for these compounds, the following representative minimum inhibitory concentrations shown on Tables A, B and C can be noted: […]

| SMILES | MIC [µg/mL] |
| --- | --- |
| CCCNC(=O)c1c(C=NNC(=O)OC)[n+]([O-])c2ccccc2[n+]1[O-] [Example 15] | 100 (≈ 288 µM) |

Test system: Staphylococcus aureus 133
Assay: Minimum inhibitory concentration in vitro, Staphylococcus aureus 133
Type: cell-based
Conditions: not given
Description: as §1, §2

| SMILES | MIC [µg/mL] |
| --- | --- |
| CCCNC(=O)c1c(C=NNC(=O)OC)[n+]([O-])c2ccccc2[n+]1[O-] [Example 15] | 100 (≈ 288 µM) |
| COC(=O)NN=Cc1c(C(=O)NC2CCCCC2)[n+]([O-])c2ccccc2[n+]1[O-] [Example 16] | 100 (≈ 258 µM) |

Test system: Streptococcus pyogenes
Assay: Minimum inhibitory concentration in vitro, Streptococcus pyogenes
Type: cell-based
Conditions: not given
Description: as §1, §2

| SMILES | MIC [µg/mL] |
| --- | --- |
| CCCNC(=O)c1c(C=NNC(=O)OC)[n+]([O-])c2ccccc2[n+]1[O-] [Example 15] | 10 (≈ 28.8 µM) |
| COC(=O)NN=Cc1c(C(=O)NC2CCCCC2)[n+]([O-])c2ccccc2[n+]1[O-] [Example 16] | 100 (≈ 258 µM) |

Test system: Mycoplasma S6
Assay: Minimum inhibitory concentration, Mycoplasma S6
Type: cell-based
Conditions: not given

| SMILES | MIC [µg/mL] |
| --- | --- |
| CCCNC(=O)c1c(C=NNC(=O)OC)[n+]([O-])c2ccccc2[n+]1[O-] [Example 15] | 100 (≈ 288 µM) |
| COC(=O)NN=Cc1c(C(=O)NC2CCCCC2)[n+]([O-])c2ccccc2[n+]1[O-] [Example 16] | 100 (≈ 258 µM) |

Test system: Alcaligenes faecalis ATCC
Assay: Minimum inhibitory concentration, Alcaligenes faecalis ATCC
Type: cell-based
Conditions: not given

| SMILES | MIC [µg/mL] |
| --- | --- |
| CCCNC(=O)c1c(C=NNC(=O)OC)[n+]([O-])c2ccccc2[n+]1[O-] [Example 15] | 100 (≈ 288 µM) |
| COC(=O)NN=Cc1c(C(=O)NC2CCCCC2)[n+]([O-])c2ccccc2[n+]1[O-] [Example 16] | 100 (≈ 258 µM) |

Test system: Aeromonas liquefaciens
Assay: Minimum inhibitory concentration, Aeromonas liquefaciens
Type: cell-based
Conditions: Aeromonas hydrophila

| SMILES | MIC [µg/mL] |
| --- | --- |
| CCCNC(=O)c1c(C=NNC(=O)OC)[n+]([O-])c2ccccc2[n+]1[O-] [Example 15] | 100 (≈ 288 µM) |
| COC(=O)NN=Cc1c(C(=O)NC2CCCCC2)[n+]([O-])c2ccccc2[n+]1[O-] [Example 16] | 100 (≈ 258 µM) |

Test system: Clostridium tetani
Assay: microbe, parasite or virus in culture
Type: cell-based
Conditions: read-out: minimum inhibitory concentration

| SMILES | MIC [µg/mL] |
| --- | --- |
| CCCNC(=O)c1c(C=NNC(=O)OC)[n+]([O-])c2ccccc2[n+]1[O-] [Example 15] | 100 (≈ 288 µM) |
| COC(=O)NN=Cc1c(C(=O)NC2CCCCC2)[n+]([O-])c2ccccc2[n+]1[O-] [Example 16] | 100 (≈ 258 µM) |

Test system: Mycoplasma gran
Assay: Minimum inhibitory concentration, Mycoplasma gran
Type: cell-based
Conditions: not given

| SMILES | MIC [µg/mL] |
| --- | --- |
| CCCNC(=O)c1c(C=NNC(=O)OC)[n+]([O-])c2ccccc2[n+]1[O-] [Example 15] | 100 (≈ 288 µM) |
| COC(=O)NN=Cc1c(C(=O)NC2CCCCC2)[n+]([O-])c2ccccc2[n+]1[O-] [Example 16] | 100 (≈ 258 µM) |

Test system: Klebsiella 63
Assay: Minimum inhibitory concentration in vitro, Klebsiella 63
Type: cell-based
Conditions: not given
Description: as §1, §2

| SMILES | MIC [µg/mL] |
| --- | --- |
| CCCNC(=O)c1c(C=NNC(=O)OC)[n+]([O-])c2ccccc2[n+]1[O-] [Example 15] | 100 (≈ 288 µM) |

Test system: Pasteurella multocida ATCC
Assay: Minimum inhibitory concentration, Pasteurella multocida ATCC
Type: cell-based
Conditions: not given

| SMILES | MIC [µg/mL] |
| --- | --- |
| CCCNC(=O)c1c(C=NNC(=O)OC)[n+]([O-])c2ccccc2[n+]1[O-] [Example 15] | 100 (≈ 288 µM) |
| COC(=O)NN=Cc1c(C(=O)NC2CCCCC2)[n+]([O-])c2ccccc2[n+]1[O-] [Example 16] | 100 (≈ 258 µM) |

Test system: Clostridium botulinum
Assay: microbe, parasite or virus in culture
Type: cell-based
Conditions: read-out: minimum inhibitory concentration

| SMILES | MIC [µg/mL] |
| --- | --- |
| CCCNC(=O)c1c(C=NNC(=O)OC)[n+]([O-])c2ccccc2[n+]1[O-] [Example 15] | 100 (≈ 288 µM) |
| COC(=O)NN=Cc1c(C(=O)NC2CCCCC2)[n+]([O-])c2ccccc2[n+]1[O-] [Example 16] | 100 (≈ 258 µM) |

Test system: Klebsiella 8085
Assay: Minimum inhibitory concentration in vitro, Klebsiella 8085
Type: cell-based
Conditions: not given
Description: as §1, §2

| SMILES | MIC [µg/mL] |
| --- | --- |
| CCCNC(=O)c1c(C=NNC(=O)OC)[n+]([O-])c2ccccc2[n+]1[O-] [Example 15] | 100 (≈ 288 µM) |
| COC(=O)NN=Cc1c(C(=O)NC2CCCCC2)[n+]([O-])c2ccccc2[n+]1[O-] [Example 16] | 100 (≈ 258 µM) |
